The numbers were not newly measured in US20160045407A1, “DENTRIFICE WITH INCREMENTAL CHEMISTRIES” (The Procter & Gamble Company, priority 2014, published 2016), which cites them from elsewhere.

Molecules are shown by their SMILES.

The conditions of the data set: concentration level where the cooling effect can be clearly recognized.

As to `CC(C)[C@@H]1CC[C@@H](C)C[C@@H]1O` [1-neomenthol], the cooling threshold entry is on record as “about 3,000 ppb”.

In the case of `CC(C)[C@@H]1CC[C@@H](C)C[C@H]1O` [L-menthol], the cooling threshold entry is reported as “about 800 ppb”.

For the compound `CC(C)[C@@H]1CC[C@@H](C)C[C@@H]1O` [d-neomenthol], the cooling threshold result is listed as “about 25,000 ppb”.
